Measured values: ChEMBL document CHEMBL5385848, “Discovery of novel hydroxyamidine based indoleamine 2,3-dioxygenase 1 (IDO1) and thioredoxin reductase 1 (TrxR1) dual inhibitors” (Eur J Med Chem, 2023)
Active and inactive are the calls of the source. The rule behind the calls is not given here.

What was measured:
[1] = biological target: T1, Thioredoxin reductase 1, cytoplasmic (Homo sapiens, UniProt Q16881); assay: Inhibition of TrxR1 in human HCT-116 cells incubated for 24 hrs; type: cell-based
T1 sequence (Q16881 whole entry): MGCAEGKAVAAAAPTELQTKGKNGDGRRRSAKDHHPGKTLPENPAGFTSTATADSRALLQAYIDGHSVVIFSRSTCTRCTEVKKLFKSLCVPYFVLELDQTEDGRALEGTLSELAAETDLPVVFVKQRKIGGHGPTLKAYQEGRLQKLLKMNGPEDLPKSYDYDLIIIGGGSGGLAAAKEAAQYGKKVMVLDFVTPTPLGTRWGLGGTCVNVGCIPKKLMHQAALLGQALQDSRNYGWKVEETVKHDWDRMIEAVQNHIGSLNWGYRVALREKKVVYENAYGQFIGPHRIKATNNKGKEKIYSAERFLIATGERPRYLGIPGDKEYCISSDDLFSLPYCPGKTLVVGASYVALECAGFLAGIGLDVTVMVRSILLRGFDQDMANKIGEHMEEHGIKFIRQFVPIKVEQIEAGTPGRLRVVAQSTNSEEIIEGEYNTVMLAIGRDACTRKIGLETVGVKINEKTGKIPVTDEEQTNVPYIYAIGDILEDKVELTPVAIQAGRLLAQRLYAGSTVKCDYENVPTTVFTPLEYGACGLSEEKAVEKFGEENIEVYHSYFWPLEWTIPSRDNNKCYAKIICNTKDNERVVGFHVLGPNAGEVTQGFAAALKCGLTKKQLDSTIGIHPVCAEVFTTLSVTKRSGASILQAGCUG

CT26 [2] = assay: Antitumor activity against mouse CT26 cells implanted in athymic nude BALB/c mouse assessed as reduction in nTreg lymphocytes at 15 to 60 mg/kg, ig administered daily for 28 days and measured every 4 days by immunofluorescence analysis; type: functional, organism-based; conditions: dose 15-60 mg/kg, time 28.0 day
CT26 [3] = assay: Antitumor activity against ig dosed mouse CT26 cells implanted in […] BALB/c mouse assessed as reduction in tumor weight administered daily for 28 days and measured every 4 days; type: functional, organism-based; conditions: dose 15-60 mg/kg, time 28.0 day
HeLa [4] = assay: Cytotoxicity against human HeLa cells incubated for 24 hrs CCK-8 assay; type: functional, cell-based
HeLa [5] = assay: Cytotoxicity against human HeLa cells incubated for 24 hrs in presence of NAC CCK-8 assay; type: functional, cell-based
HCT-116 [6] = assay: Induction of ROS generation in human HCT-116 cells at 10 uM incubated for 4 hrs by DCFH-DA staining based flow cytometry analysis; type: functional, cell-based
CT26 [7] = assay: Antitumor activity against ig dosed mouse CT26 cells implanted in […] BALB/c mouse assessed as reduction in tumor volume administered daily for 28 days and measured every 4 days; type: functional, organism-based; conditions: dose 15-60 mg/kg, time 28.0 day
HCT-116 [8] = assay: Induction of apoptosis in human HCT-116 cells assessed as apoptotic rate at 10 uM pretreated with NAC incubated for 24 hrs by Annexin-V/PI staining based flow cytometry analysis (reference value: 9.8 +/- 1.59%); type: functional
[9] = biological target: T2, Thioredoxin reductase 1, cytoplasmic (Mus musculus, UniProt Q9JMH6); assay: Inhibition of TrxR1 in mouse CT26 cells incubated for 24 hrs; type: cell-based
T2 sequence (Q9JMH6 whole entry): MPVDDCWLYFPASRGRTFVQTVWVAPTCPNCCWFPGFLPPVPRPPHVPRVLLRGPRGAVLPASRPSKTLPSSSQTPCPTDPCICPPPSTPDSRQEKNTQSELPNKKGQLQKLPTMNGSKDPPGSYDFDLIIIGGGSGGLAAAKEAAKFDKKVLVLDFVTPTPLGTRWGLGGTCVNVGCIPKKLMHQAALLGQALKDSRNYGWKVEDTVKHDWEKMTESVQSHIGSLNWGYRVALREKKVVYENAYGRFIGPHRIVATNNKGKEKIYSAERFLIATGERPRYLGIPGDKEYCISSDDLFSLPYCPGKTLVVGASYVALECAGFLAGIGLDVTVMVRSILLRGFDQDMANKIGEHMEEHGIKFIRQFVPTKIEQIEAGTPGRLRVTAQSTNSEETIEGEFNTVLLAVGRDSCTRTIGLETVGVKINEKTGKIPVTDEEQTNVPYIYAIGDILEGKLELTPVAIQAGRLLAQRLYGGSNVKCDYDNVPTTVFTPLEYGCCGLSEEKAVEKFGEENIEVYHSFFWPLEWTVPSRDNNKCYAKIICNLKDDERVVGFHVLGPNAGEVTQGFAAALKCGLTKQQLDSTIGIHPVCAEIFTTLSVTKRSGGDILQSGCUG

[10] = biological target: T3, Thioredoxin reductase 1, cytoplasmic (Rattus norvegicus, UniProt O89049); assay: Inhibition of recombinant rat TrxR1 incubated for 1 hr in presence of NADPH by microplate reader analysis
T3 sequence (O89049 whole entry): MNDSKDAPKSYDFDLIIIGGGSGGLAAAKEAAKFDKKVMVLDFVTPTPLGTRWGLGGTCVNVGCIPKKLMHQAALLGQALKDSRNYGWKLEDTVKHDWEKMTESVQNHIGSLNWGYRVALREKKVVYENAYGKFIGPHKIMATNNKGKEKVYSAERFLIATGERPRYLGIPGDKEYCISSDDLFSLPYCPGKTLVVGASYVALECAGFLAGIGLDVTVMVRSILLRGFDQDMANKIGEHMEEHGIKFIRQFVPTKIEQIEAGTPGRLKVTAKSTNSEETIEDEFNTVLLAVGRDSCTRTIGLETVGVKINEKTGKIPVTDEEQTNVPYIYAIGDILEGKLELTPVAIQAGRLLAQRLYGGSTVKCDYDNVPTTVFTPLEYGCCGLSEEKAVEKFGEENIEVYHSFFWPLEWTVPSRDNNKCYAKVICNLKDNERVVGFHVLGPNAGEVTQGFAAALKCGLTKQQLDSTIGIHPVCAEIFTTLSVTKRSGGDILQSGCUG

[11] = Toxicity in athymic nude BALB/c mouse assessed as weight gain at 15 to 60 mg/kg, ig administered daily for 28 days and measured every 4 days; type: organism-based; conditions: in vivo, po, 672 h, dose 15-60 mg/kg, time 28 day
[12] = biological target: Indoleamine 2,3-dioxygenase 1 (Mus musculus) (UniProt P28776); assay: In vivo inhibition of IDO1 in C57BL/6 mouse assessed as reduction in plasma Kyn level at 60 mg/kg, po administered once daily by LC-MS/MS analysis; type: functional, organism-based
[13] = biological target: T1, Thioredoxin reductase 1, cytoplasmic; assay: Inhibition of TrxR1 in human HeLa cells incubated for 24 hrs; type: cell-based
[14] = Toxicity in athymic BALB/c mouse xenografted with human HCT-116 cells assessed as change in heart morphology at 15 to 60 mg/kg, ig administered daily for 28 days and measured every 4 days; type: organism-based; conditions: in vivo, po, 672 h, dose 15-60 mg/kg, time 28 day
IDO1 = assay: Selectivity ratio of IC50 for cytotoxicity against mouse CT26 cells to EC50 for inhibition of IDO1 in mouse CT26 cells; type: cell-based; conditions: read-out: Ratio IC50/EC50
[15] = Cytotoxicity against mouse CT26 cells incubated for 48 hrs by CCK-8 assay; type: toxicity, cell-based
[16] = Toxicity in athymic BALB/c mouse xenografted with human HCT-116 cells assessed as change in lung morphology at 15 to 60 mg/kg, ig administered daily for 28 days and measured every 4 days; type: organism-based; conditions: in vivo, po, 672 h, dose 15-60 mg/kg, time 28 day
[17] = Toxicity in athymic BALB/c mouse xenografted with human HCT-116 cells assessed as effect on body weight at 15 to 60 mg/kg, ig administered daily for 28 days and measured every 4 days; type: organism-based; conditions: in vivo, po, 672 h, dose 15-60 mg/kg, time 28 day

Indoleamine 2,3-dioxygenase 1 (Mus musculus), sequence (P28776 whole entry, looked up): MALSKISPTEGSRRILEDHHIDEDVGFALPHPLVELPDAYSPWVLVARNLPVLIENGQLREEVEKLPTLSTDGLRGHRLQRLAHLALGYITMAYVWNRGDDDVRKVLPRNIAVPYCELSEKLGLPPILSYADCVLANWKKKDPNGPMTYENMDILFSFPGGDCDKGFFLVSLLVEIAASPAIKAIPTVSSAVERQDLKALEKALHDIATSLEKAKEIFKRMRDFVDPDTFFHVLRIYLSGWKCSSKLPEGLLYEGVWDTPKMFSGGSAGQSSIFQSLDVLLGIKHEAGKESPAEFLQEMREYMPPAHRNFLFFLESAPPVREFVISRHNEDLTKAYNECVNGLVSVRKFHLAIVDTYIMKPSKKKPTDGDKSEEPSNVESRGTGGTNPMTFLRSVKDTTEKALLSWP

EC50 [1]: 3.14 µM | EC50 [9]: 25.7 µM | IC50 [10]: 3 µM | Activity [12]: Active | EC50 [13]: 13.1 µM
SMILES: O=C(Cc1ccc(O)cc1)Nc1nnc(CCCNc2nonc2/C(=N\O)Nc2ccc(F)c(Br)c2)s1
Activity (CT26 [2]): Active | Activity (CT26 [3]): Dose-Dependent Effect | IC50 (HeLa [4]): 16.1 µM | IC50 (HeLa [5]): 74.2 µM | Activity (HCT-116 [6]): Active | Activity (CT26 [7]): Dose-Dependent Effect | Activity (HCT-116 [8]): 15.21% | Activity [11]: Toxic | Activity [14]: Non-Toxic | selectivity ratio (IDO1): 5.35 | IC50 at 48 h [15]: 12.4 µM | Activity [16]: Non-Toxic | Activity [17]: Non-Toxic
